Results as given in US8466145B2, “Dipeptidyl peptidase IV inhibitors” (Orchid Chemicals & Pharmaceuticals Limited, priority 2009, dated 2013).
pIC50: −log10 of the molar value.

Experiments:
[1] = molecular target: T1, human recombinant Dipeptidyl peptidase IV enzyme (hrDPP IV) (Homo sapiens, UniProt P27487); experiment: DPP IV assay, cleavage of H-Gly-Pro-AMC by human recombinant DPP-IV enzyme; format: biochemical; settings: for inhibition at 0.3 µM: 300 nM compound concentration
T1 construct: purchased R&D systems
T1 sequence (P27487 whole entry): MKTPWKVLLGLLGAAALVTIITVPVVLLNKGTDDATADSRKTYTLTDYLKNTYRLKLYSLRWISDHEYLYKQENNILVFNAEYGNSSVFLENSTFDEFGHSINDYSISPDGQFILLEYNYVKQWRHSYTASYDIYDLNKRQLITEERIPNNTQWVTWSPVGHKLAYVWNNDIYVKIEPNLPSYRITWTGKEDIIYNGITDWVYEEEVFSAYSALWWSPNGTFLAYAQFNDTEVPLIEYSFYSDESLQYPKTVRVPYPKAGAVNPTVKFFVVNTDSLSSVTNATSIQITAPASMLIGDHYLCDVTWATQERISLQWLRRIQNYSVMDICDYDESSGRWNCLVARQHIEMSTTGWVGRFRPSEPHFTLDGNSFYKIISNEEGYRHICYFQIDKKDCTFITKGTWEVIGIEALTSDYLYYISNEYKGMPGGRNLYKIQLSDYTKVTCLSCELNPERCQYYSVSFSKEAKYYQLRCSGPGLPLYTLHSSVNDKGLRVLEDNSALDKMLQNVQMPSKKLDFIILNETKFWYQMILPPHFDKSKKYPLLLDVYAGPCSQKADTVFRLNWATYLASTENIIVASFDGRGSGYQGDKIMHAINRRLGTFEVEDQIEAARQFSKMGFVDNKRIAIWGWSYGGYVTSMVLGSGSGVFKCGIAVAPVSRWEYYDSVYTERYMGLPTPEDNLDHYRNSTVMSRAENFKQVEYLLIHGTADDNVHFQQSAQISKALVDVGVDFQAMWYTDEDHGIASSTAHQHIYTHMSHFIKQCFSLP
Experimental: DPP IV activity was determined by the cleavage rate of 7-amino 4-methylcoumarin (AMC) from the substrate H-Gly-Pro-AMC. In brief, the assay was conducted by adding 3 ng of human recombinant Dipeptidyl peptidase IV enzyme (hrDPP IV, available commercially from R&D systems) in 70 μL of the assay buffer (25 mM HEPES, 140 mM NaCl and 1% BSA, pH 7.8) to a 96 well black flat bottom microtitre plate. Test compounds were added as 10 μL additions to all wells except blank and total activity wells. After incubation of test substance with enzyme for 60 minutes at room temperature, 10 μL of 100 μM substrate H-Gly-Pro-AMC was added. After mixing, the plate was left for 20 minutes at room temperature. Then the reaction was terminated by addition of 10 μL of 25% glacial acetic acid. Fluorescence was measured using Spectra Max Gemini XS (Molecular Devices, USA) at an excitation filter of 360 nm and emission filter of 460 nm.
Test compounds dissolved in DMSO were diluted with assay buffer at different concentrations and tested in duplicates. Percentage inhibition was calculated with respect to total activity. IC50 value was calculated using Prism Software.

Row | SMILES | melting point [°C] | inhibition at 0.3 µM [1] [%] | pIC50 [1]
1 | CC1(C)[C@@H](CNC(=O)C2CCC(F)(F)CC2)CC[C@@]1(C)NCC(=O)N1C[C@@H](F)C[C@H]1C#N [Example 22, N-(((1S,3R)-3-(2-((2S,4S)-2-Cyano-4-fluoropyrrolidin-1-yl)-2-oxoethylamino)-2,2,3-trimethylcyclopentyl)methyl)-4,4-difluorocyclohexane carboxamide] | 193 to 195 | 72.7 | –
2 | CC1(C)[C@H](CNC(=O)C2CCC(F)(F)CC2)CC[C@]1(C)NCC(=O)N1C[C@@H](F)C[C@H]1C#N [Example 23, N-(((1R,3S)-3-(2-((2S,4S)-2-Cyano-4-fluoropyrrolidin-1-yl)-2-oxoethylamino)-2,2,3-trimethylcyclopentyl)methyl)-4,4-difluorocyclohexane carboxamide] | 189 to 194 | 86.2 | –
3 | CC1(C)[C@@H](CNc2ncccc2C#N)CC[C@@]1(C)NCC(=O)N1C[C@@H](F)C[C@H]1C#N [Example 26, 2-(((1S,3R)-3-(2-((2S,4S)-2-Cyano-4-fluoropyrrolidin-1-yl)-2-oxoethylamino)-2,2,3-trimethylcyclopentyl)methylamino)nicotinonitrile] | 96 to 99 | 63.2 | –
4 | CC1(C)[C@@H](CNc2ccc(C(F)(F)F)cn2)CC[C@@]1(C)NCC(=O)N1C[C@@H](F)C[C@H]1C#N [Example 27, (2S,4S)-4-Fluoro-1-(2-((1R,3S)-1,2,2-trimethyl-3-((5-(trifluoromethyl)pyridin-2-ylamino)methyl)cyclopentylamino)acetyl)pyrrolidine-2-carbonitrile] | 52 to 58 | 47.4 | –
5 | CC1(C)[C@@H](CN2CCCS2(=O)=O)CC[C@@]1(C)NCC(=O)N1C[C@@H](F)C[C@H]1C#N [Example 28, (2S,4S)-1-(2-((1R,3S)-3-[(1,1-Dioxidoisothiazolidin-2-yl)methyl]-1,2,2-trimethylcyclopentylamino)acetyl)-4-fluoropyrrolidine-2-carbonitrile] | 126 to 128 | – | 6.74
6 | CC1(C)[C@@H](CN2CCCC2)CC[C@@]1(C)NCC(=O)N1C[C@@H](F)C[C@H]1C#N [Example 36, (2S,4S)-4-Fluoro-1-(2-((1R,3S)-1,2,2-trimethyl-3-(pyrrolidin-1-ylmethyl)cyclopentylamino)acetyl)pyrrolidine-2-carbonitrile] | 108 to 112 | 31.9 | –
7 | CC1(C)[C@H](CN2CCCC2)CC[C@]1(C)NCC(=O)N1C[C@@H](F)C[C@H]1C#N [Example 37, (2S,4S)-4-Fluoro-1-(2-((1S,3R)-1,2,2-trimethyl-3-(pyrrolidin-1-ylmethyl)cyclopentylamino)acetyl)pyrrolidine-2-carbonitrile] | 123 to 126 | – | 7.65
8 | CC1(C)[C@@H](CN2CC[C@@H](O)C2)CC[C@@]1(C)NCC(=O)N1C[C@@H](F)C[C@H]1C#N [Example 38, (2S,4S)-4-fluoro-1-(2-((1R,3S)-3-(((R)-3-hydroxypyrrolidin-1-yl)methyl)-1,2,2-trimethylcyclopentylamino)acetyl)pyrrolidine-2-carbonitrile] | 130 to 135 | 42.6 | –
9 | CC1(C)[C@@H](CN2CCCCC2)CC[C@@]1(C)NCC(=O)N1C[C@@H](F)C[C@H]1C#N [Example 39, (2S,4S)-4-Fluoro-1-(2-((1R,3S)-1,2,2-trimethyl-3-(piperidin-1-ylmethyl)cyclopentylamino)acetyl)pyrrolidine-2-carbonitrile] | 100 to 103 | 45.9 | –
10 | CC1(C)[C@@H](CS(=O)(=O)c2ccc(S(C)(=O)=O)cc2)CC[C@@]1(C)NCC(=O)N1C[C@@H](F)C[C@H]1C#N [Example 42, (2S,4S)-4-Fluoro-1-(2-((1R,3S)-1,2,2-trimethyl-3-((4-(methylsulfonyl)phenylsulfonyl)methyl)cyclopentylamino)acetyl)pyrrolidine-2-carbonitrile] | 220 to 224 | – | 7.04
11 | CC1(C)[C@@H](CS(=O)(=O)c2ccc(S(C)(=O)=O)cc2)CC[C@@]1(C)NCC(=O)N1CCC[C@H]1C#N [Example 44, (S)-1-(2-((1R,3S)-1,2,2-Trimethyl-3-((4-(methylsulfonyl)phenylsulfonyl)methyl)cyclopentylamino)acetyl)pyrrolidine-2-carbonitrile] | 162 to 166 | – | 6.23
12 | CC1(C)[C@H](CS(=O)(=O)c2ccc(S(C)(=O)=O)cc2)CC[C@]1(C)NCC(=O)N1CCC[C@H]1C#N [Example 46, (S)-1-(2-((1S,3R)-1,2,2-Trimethyl-3-((4-(methylsulfonyl)phenylsulfonyl)methyl)cyclopentylamino)acetyl)pyrrolidine-2-carbonitrile] | 158 to 160 | 40.9 | –
13 | Cc1noc([C@H]2CC[C@@](C)(NCC(=O)N3C[C@@H](F)C[C@H]3C#N)C2(C)C)n1 [Example 50, (2S,4S)-4-Fluoro-1-(2-((1R,3S)-1,2,2-trimethyl-3-(3-methyl-1,2,4-oxadiazol-5-yl)cyclopentylamino)acetyl)pyrrolidine-2-carbonitrile] | 147 to 151 | 15 | –

Results, then the molecule that gave them:

Row | melting point [°C] | inhibition at 0.3 µM [1] [%] | pIC50 [1] | SMILES
14 | 160 to 163 | – | 7.04 | Cc1noc([C@@H]2CC[C@](C)(NCC(=O)N3C[C@@H](F)C[C@H]3C#N)C2(C)C)n1 [Example 51, (2S,4S)-4-Fluoro-1-(2-((1S,3R)-1,2,2-trimethyl-3-(3-methyl-1,2,4-oxadiazol-5-yl)cyclopentylamino)acetyl)pyrrolidine-2-carbonitrile]
15 | 121 to 123 | 64.9 | – | Cc1nc(C[C@H]2CC[C@@](C)(NCC(=O)N3C[C@@H](F)C[C@H]3C#N)C2(C)C)no1 [Example 54, (2S,4S)-4-Fluoro-1-(2-((1R,3R)-1,2,2-trimethyl-3-((5-methyl-1,2,4-oxadiazol-3-yl)methyl)cyclopentylamino)acetyl)pyrrolidine-2-carbonitrile]
16 | 152 to 154 | 91.4 | – | CC(C)(C)c1nc(C[C@@H]2CC[C@](C)(NCC(=O)N3C[C@@H](F)C[C@H]3C#N)C2(C)C)no1 [Example 58, (2S,4S)-1-(2-((1S,3S)-3-((5-tert-Butyl-1,2,4-oxadiazol-3-yl)methyl)-1,2,2-trimethylcyclopentylamino)acetyl)-4-fluoropyrrolidine-2-carbonitrile]
17 | 152 to 153 | 67.7 | – | CC1(C)[C@H](Cc2noc(C3CCCCC3)n2)CC[C@]1(C)NCC(=O)N1C[C@@H](F)C[C@H]1C#N [Example 59, (2S,4S)-1-(2-((1S,3S)-3-((5-Cyclohexyl-1,2,4-oxadiazol-3-yl)methyl)-1,2,2-trimethylcyclopentylamino)acetyl)-4-fluoropyrrolidine-2-carbonitrile]
18 | 158 to 216 | 79.8 | – | CC1(C)[C@H](Cc2noc(-c3ccc(F)cc3)n2)CC[C@]1(C)NCC(=O)N1C[C@@H](F)C[C@H]1C#N [Example 62, (2S,4S)-4-Fluoro-1-(2-((1S,3S)-3-((5-(4-fluorophenyl)-1,2,4-oxadiazol-3-yl)methyl)-1,2,2-trimethylcyclopentylamino)acetyl)pyrrolidine-2-carbonitrile]
19 | 82 to 85 | 79.2 | – | CC(C)c1noc([C@]2(C)CC[C@H](NCC(=O)N3C[C@@H](F)C[C@H]3C#N)C2(C)C)n1 [Example 67, (2S,4S)-4-Fluoro-1-(2-((1S,3R)-3-(3-isopropyl-1,2,4-oxadiazol-5-yl)-2,2,3-trimethylcyclopentylamino)acetyl)pyrrolidine-2-carbonitrile]
20 | 167 to 171 | – | 7.64 | CC1(C)[C@H](NCC(=O)N2C[C@@H](F)C[C@H]2C#N)CC[C@]1(C)c1nc(-c2ccncc2)no1 [Example 71, (2S,4S)-4-Fluoro-1-(2-((1R,3S)-2,2,3-trimethyl-3-(3-(pyridin-4-yl)-1,2,4-oxadiazol-5-yl)cyclopentylamino)acetyl)pyrrolidine-2-carbonitrile]
21 | 122 to 126 | 4.25 | – | CN1C[C@]2(C)CC[C@](NCC(=O)N3C[C@@H](F)C[C@H]3C#N)(C1)C2(C)C [Example 76, (2S,4S)-4-Fluoro-1-(2-((1R,5R)-3,5,8,8-tetramethyl-3-azabicyclo[3.2.1]octan-1-ylamino)acetyl)pyrrolidine-2-carbonitrile]
22 | 152 to 154 | 93.9 | 8.39 | CC1(C)[C@@H](NCC(=O)N2C[C@@H](F)C[C@H]2C#N)CC[C@@]1(C)CCCn1cncn1 [Example 83, (2S,4S)-1-(2-((1S,3R)-3-(3-(1H-1,2,4-Triazol-1-yl)propyl)-2,2,3-trimethylcyclopentylamino)acetyl)-4-fluoropyrrolidine-2-carbonitrile]
